Results: patent publication US10059699B2, “Tetrahydroquinoline derivatives as bromodomain inhibitors” (GlaxoSmithKline Intellectual Property (No.2) Limited, priority 2014, dated 2018)
Like-named read-outs stand apart in the source and are kept apart here. Marks after values point to notes of the source that are not given here.

Assays:
[1] = system: NUT midline carcinoma cells (11060); assay: Cancer cell line proliferation assay, 11060; type: cell-based; settings: 11060 cells, 72 hours, CellTiter Glo, n = 3
Method: (§1) The impact of the compound of Examples 7 and 14 on cancer cell proliferation was determined using patient derived NUT midline carcinoma cells (11060), multiple myeloma cells (OPM-2, DSMZ) and biphenotypic B myelomonocytic leukaemia cells (MV-4-11, ATCC) in a 72 hour proliferation assay. 11060 and OPM-2 cells were maintained in RPMI 1640 medium (Invitrogen) supplemented with 10% HI-FBS (Heat-Inactivated Fetal Bovine Serum, Hyclone) and 2 mM L-glutamine (Invitrogen) at 37° C. and an atmosphere of 5% CO2. MV-4-11 cells were maintained in IMDM media supplemented with 10% HI-FCS, 2 mM L-glutamine, 1× Non-essential amino acids (Invitrogen) and 1× sodium pyruvate (1 mM) (Invitrogen). Cells were diluted to 1.11×10^5 cells/mL and 90 μL/well plated into black sided, clear bottomed 96 well tissue culture plates (Corning), using growth media supplemented with penicillin/streptomycin (Invitrogen). Cells were incubated overnight at 37° C. and in one plate, ATP levels were measured using the CellTiter Glo assay (Promega) according to the manufacturer's instructions, to give a baseline reading (t=0). 3-fold serial dilutions of compounds ranging from 6 mM to 0.3 μM were prepared in 100% DMSO. The DMSO dilution series was diluted 20-fold in growth media before 10 μl of the resulting dilutions were added to the appropriate wells of the remaining cell plates. The final compound concentrations in the wells ranged from 30 μM to 1.5 nM in 0.5% DMSO. Cells were incubated with compounds for 72 hours before assaying for ATP content using CellTiter Glo (t=72). CellTiter Glo data from each t=72 time point was normalised to the relevant t=0 time point data, and expressed as % t=0.

TNFα = assay: LPS induced secretion of TNFα from whole blood; type: cell-based; settings: human whole blood, LPS 200 ng/mL, n=4; read-out: pIC50, LPS induced TNFα secretion (converted)
From the text: Activation in whole blood of predominantly monocytic cells by agonists of toll-like receptors such as bacterial lipopolysaccharide (LPS) results in production of key inflammatory mediators, including TNFα. Such pathways are widely considered to be central to the pathophysiology of a range of auto-immune and inflammatory disorders.
Human Whole Blood from 2 donors (n=2) is collected using Sodium heparin as anti-coagulent (Wockhardt cat# FP1712) (10 units of heparin/mL of blood). Compounds were prepared as [10 mM] DMSO stocks and then diluted such that the top starting concentration was [1.4 mM] followed by 8×3-fold dilutions in DMSO. Final assay concentrations start at [10 μM] for all compounds. 1 μL diluted compound was added per well in a 96-well U bottom plate. 1 μL DMSO only was added to column 10 (+ve control) and 1-((2S,4R)-2-methyl-4-(phenylamino)-6-(4-(piperidin-1-ylmethyl)phenyl)-3,4-dihydroquinolin-1(2H)-yl)ethanone (for a preparation see Compound 28, J. Med. Chem. 2014, 57, 8111-8131, 1 μL, 1.4 mM) added to column 11 (−ve control). […] 150 μL of 2×MSD Read Buffer T (stock 4×MSD Read Buffer T was diluted 50:50 with de-ionised water) was then added to each well and the plates read on the MSD Sector Imager 6000. Concentration response curves for each compound were generated from the data using internal XC50 analysis and an IC50 value was calculated.

cytochrome P450 3A4 = cytochrome P450 3A4 (Homo sapiens, UniProt P08684); assay: Cytochrome P450 3A4 metabolism dependent inhibition; type: in vitro ADME
[2] = system: biphenotypic B myelomonocytic leukaemia cells (MV-4-11); assay: Cancer cell line proliferation assay, MV-4-11; type: cell-based; settings: Homo sapiens, MV4-11, MV-4-11 cells, 72 hours, CellTiter Glo, n = 3
Method: as §1

NMC11060 cells = assay: Mouse xenograft tumour assay (NMC); type: in vivo; settings: QD for 21 days, NOD/SCID mouse, day 21
Method: 1×10^7 NMC11060 cells, in 200 μl of 75% matrigel, were injected subcutaneously into each NOD/SCID mouse. Randomised oral administration of vehicle formulation, 1% Methycellulose (MC), or compound was initiated from the day tumour volume reached between 160-301 mm^3. Tumour volume was then measured every third day until either 21 days post inoculation or tumour volume had surpassed approximately 1000 mm^3.
Tumour growth inhibition=100−mean tumor volume of treatment group/mean tumour volume of control group×100. P values are derived from coefficient of variation analysis using software PASS 12, comparing vehicle against drug treated group. Based on day 21,* p<0.05, **p<0.01 and ***p<0.001

hERG = hERG (Homo sapiens, UniProt Q12809); assay: hERG liability
[3] = full curve fit, read-out: Cellular Proliferation: pIC50 (converted)
[4] = read-out: Cellular Proliferation: gpIC50 (converted)

cytochrome P450 3A4, sequence (P08684 whole entry): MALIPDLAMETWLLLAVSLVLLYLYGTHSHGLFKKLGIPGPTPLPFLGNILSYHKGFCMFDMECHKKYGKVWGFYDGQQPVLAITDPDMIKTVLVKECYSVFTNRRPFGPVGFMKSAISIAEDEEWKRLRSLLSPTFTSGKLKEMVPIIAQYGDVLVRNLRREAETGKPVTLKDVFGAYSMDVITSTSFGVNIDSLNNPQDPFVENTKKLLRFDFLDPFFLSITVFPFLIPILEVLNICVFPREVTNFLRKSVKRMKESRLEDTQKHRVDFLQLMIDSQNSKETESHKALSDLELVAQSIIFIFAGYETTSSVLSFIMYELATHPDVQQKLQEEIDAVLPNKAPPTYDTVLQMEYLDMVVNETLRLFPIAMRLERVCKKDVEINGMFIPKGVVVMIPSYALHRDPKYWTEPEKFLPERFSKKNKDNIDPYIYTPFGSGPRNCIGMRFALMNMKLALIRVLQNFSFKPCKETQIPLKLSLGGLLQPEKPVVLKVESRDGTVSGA
hERG, sequence (Q12809 whole entry): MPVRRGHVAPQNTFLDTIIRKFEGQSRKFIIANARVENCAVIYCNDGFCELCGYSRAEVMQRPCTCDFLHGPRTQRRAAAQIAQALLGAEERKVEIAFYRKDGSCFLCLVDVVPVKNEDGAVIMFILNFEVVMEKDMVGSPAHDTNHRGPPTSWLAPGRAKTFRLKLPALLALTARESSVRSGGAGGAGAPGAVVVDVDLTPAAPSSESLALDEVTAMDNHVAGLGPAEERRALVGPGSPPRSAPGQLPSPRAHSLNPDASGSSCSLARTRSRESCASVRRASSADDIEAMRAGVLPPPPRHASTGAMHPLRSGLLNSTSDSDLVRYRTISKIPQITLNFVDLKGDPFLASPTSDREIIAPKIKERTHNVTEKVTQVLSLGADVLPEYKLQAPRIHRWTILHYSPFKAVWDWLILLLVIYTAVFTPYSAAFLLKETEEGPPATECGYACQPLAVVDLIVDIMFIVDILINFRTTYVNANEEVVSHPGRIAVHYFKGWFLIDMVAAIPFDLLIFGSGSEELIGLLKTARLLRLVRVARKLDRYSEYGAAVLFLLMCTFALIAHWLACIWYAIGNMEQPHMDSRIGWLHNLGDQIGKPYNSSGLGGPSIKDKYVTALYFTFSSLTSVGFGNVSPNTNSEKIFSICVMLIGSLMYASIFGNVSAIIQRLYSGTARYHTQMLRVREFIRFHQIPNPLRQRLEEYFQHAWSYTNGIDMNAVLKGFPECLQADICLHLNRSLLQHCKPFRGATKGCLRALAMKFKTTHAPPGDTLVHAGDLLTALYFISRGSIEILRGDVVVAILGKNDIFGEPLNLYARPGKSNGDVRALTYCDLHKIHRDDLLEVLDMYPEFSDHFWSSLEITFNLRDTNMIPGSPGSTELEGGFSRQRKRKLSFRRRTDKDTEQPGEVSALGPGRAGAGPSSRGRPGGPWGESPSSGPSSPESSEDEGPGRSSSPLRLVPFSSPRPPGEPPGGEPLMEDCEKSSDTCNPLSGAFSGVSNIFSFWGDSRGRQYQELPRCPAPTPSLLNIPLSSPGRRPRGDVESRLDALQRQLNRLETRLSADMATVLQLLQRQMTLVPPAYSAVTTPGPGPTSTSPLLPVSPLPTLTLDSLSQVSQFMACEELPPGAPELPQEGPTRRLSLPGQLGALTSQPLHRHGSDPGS

CC(=O)N1c2ccc(C(N)=O)cc2[C@H](Nc2ncc(Cl)cn2)C[C@@H]1C [Example 14, (2S,4R)-1-acetyl-4-((5-chloropyrimidin-2-yl)amino)-2-methyl-1,2,3,4-tetrahydroquinoline-6-carboxamide]
IC50 [1, 3]: 1000 nM | IC50 [1, 4]: 631 nM | IC50 (TNFα): 63.1 nM | cytochrome P450 3A4 metabolism dependent inhibition (cytochrome P450 3A4): no cytochrome P450 3A4 metabolism dependent inhibition | IC50 [2, 3]: 316 nM | IC50 [2, 4]: 251 nM | % TGI (NMC11060 cells; 10 mg/kg/day PO): 51* % | % TGI (NMC11060 cells; 30 mg/kg/day PO): 93*** % | hERG liability (hERG): no hERG liability
